We go through 15 compounds from PubChem BioAssay AID248 (DTP/NCI, 2004).

For the assay, the system named is L1210 leukemia ip in BDF1 mice, survival T/C. Briefly: NCI In Vivo Anticancer Drug Screen. Data for tumor model L1210 Leukemia (intraperitoneal) in B6D2F1 (BDF1) mice. The conditions noted are these: endpoint: mean survival time, higher = longer survival. In outline:
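Read-out is survival time, reported as the treated-group measurement over the vehicle-control measurement.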

[1] abbreviates: dose: 100.0 mg/kg/injection, schedule: Q01DX001 (ip), vehicle: saline.
[2] abbreviates: dose: 200.0 mg/kg/injection, schedule: Q01DX001 (ip), vehicle: saline.
Where [3] appears, read: dose: 400.0 mg/kg/injection, schedule: Q01DX001 (ip), vehicle: saline.
Where [4] appears, read: dose: 100.0 mg/kg/injection, schedule: Q04DX003 (ip), vehicle: saline with Tween-80.
Where [5] appears, read: dose: 200.0 mg/kg/injection, schedule: Q04DX003 (ip), vehicle: saline with Tween-80.
The mark [6] stands for this setting: dose: 50.0 mg/kg/injection, schedule: Q01DX009 (ip), vehicle: saline with Tween-80.
The mark [7] stands for this setting: dose: 100.0 mg/kg/injection, schedule: Q01DX009 (ip), vehicle: Klucel (hydroxypropylcellulose) (HPC).
[8] abbreviates: dose: 200.0 mg/kg/injection, schedule: Q01DX009 (ip), vehicle: Klucel (hydroxypropylcellulose) (HPC).
Setting [9] is: dose: 400.0 mg/kg/injection, schedule: Q01DX009 (ip), vehicle: Klucel (hydroxypropylcellulose) (HPC).

Each structure is given as a SMILES string. Several values for one entry are separate records, joined by “and”; a condition that tells them apart may be missing. Equal values may be shown once. Toxic doses and inconclusive results are not listed.

In the case of `CCOC(=O)c1cc(C(=O)OCC)c(=O)oc1OCC`, the T/C was 105 % of control (dose: 18.75 mg/kg/injection, schedule: Q01DX009 (ip), vehicle: acetone); 87 % of control (dose: 37.5 mg/kg/injection, schedule: Q01DX009 (ip), vehicle: acetone); 88 % of control (dose: 37.5 mg/kg/injection, schedule: Q04DX003 (ip), vehicle: saline); 110 % of control (dose: 75.0 mg/kg/injection, schedule: Q01DX001 (ip), vehicle: saline); 87 % of control (dose: 75.0 mg/kg/injection, schedule: Q01DX009 (ip), vehicle: acetone); 90 % of control (dose: 75.0 mg/kg/injection, schedule: Q04DX003 (ip), vehicle: saline). The T/C (dose: 150.0 mg/kg/injection, schedule: Q01DX001 (ip), vehicle: saline) was 97 % of control and the T/C (dose: 150.0 mg/kg/injection, schedule: Q04DX003 (ip), vehicle: saline) was 93 % of control.

Take `CCOC(=O)/C(C)=N\N=C(/CCOC)COC`: the T/C is, setting by setting: (dose: 50.0 mg/kg/injection, schedule: Q01DX001 (ip), vehicle: saline) 101 % of control; (dose: 50.0 mg/kg/injection, schedule: Q01DX009 (ip), vehicle: carboxymethylcellulose (CMC)) 117 % of control; under setting [1], 101 % of control; under setting [2], 101 % of control; under setting [3], 95 % of control; (dose: 400.0 mg/kg/injection, schedule: Q01DX009 (ip), vehicle: carboxymethylcellulose (CMC)) 94 % of control.

Turning to `CC1CCCCC1C(=O)N1CCCCC1` (stereo not given), the T/C is, setting by setting: (dose: 100.0 mg/kg/injection, schedule: Q04DX002 (ip), vehicle: saline) 117 % of control; (dose: 200.0 mg/kg/injection, schedule: Q04DX002 (ip), vehicle: saline) 96 % of control; (dose: 400.0 mg/kg/injection, schedule: Q04DX002 (ip), vehicle: saline) 101 % of control.

Take `Oc1cc2ccccc2c2c1ccc1ccccc12`: the T/C is 102 % of control under setting [1], 111 % of control under setting [2] and 102 % of control under setting [3].

Consider `CCOC(=O)c1cnc(SC)nc1Nc1cccc(C)c1`, for which the T/C runs as follows: under setting [4], 86 % of control; under setting [5], 91 % of control; (dose: 400.0 mg/kg/injection, schedule: Q04DX003 (ip), vehicle: saline with Tween-80) 86 % of control.

Consider `O=C(O)c1[nH]c(=O)[nH]c(=O)c1F.[Ga]`, for which the T/C is 109 % of control under setting [6]; 91 % of control (dose: 100.0 mg/kg/injection, schedule: Q01DX009 (ip), vehicle: saline with Tween-80); 101 % of control under setting [4]; 160 % of control (dose: 177.0 mg/kg/injection, schedule: Q01DX001 (ip), vehicle: saline with Tween-80); 174 % of control (dose: 200.0 mg/kg/injection, schedule: Q01DX001 (ip), vehicle: saline with Tween-80); 99 % of control (dose: 200.0 mg/kg/injection, schedule: Q01DX009 (ip), vehicle: saline with Tween-80). Moreover, the T/C was 102 % of control under setting [5] and 197 % of control (dose: 400.0 mg/kg/injection, schedule: Q01DX001 (ip), vehicle: saline with Tween-80).

`Cc1ccc(NC(=O)N(CCBr)N=O)cc1`: the T/C was 117 % of control (dose: 26.0 mg/kg/injection, schedule: Q01DX015 (ip), vehicle: carboxymethylcellulose (CMC)); 101 % of control (dose: 39.0 mg/kg/injection, schedule: Q01DX015 (ip), vehicle: carboxymethylcellulose (CMC)); 101 % of control and 121 % of control (dose: 58.0 mg/kg/injection, schedule: Q01DX015 (ip), vehicle: carboxymethylcellulose (CMC)); 103 % of control (dose: 88.0 mg/kg/injection, schedule: Q01DX015 (ip), vehicle: carboxymethylcellulose (CMC)); 122 % of control (dose: 100.0 mg/kg/injection, schedule: Q01DX001 (ip), vehicle: carboxymethylcellulose (CMC)); 89 % of control (dose: 133.0 mg/kg/injection, schedule: Q01DX015 (ip), vehicle: carboxymethylcellulose (CMC)). In addition, the T/C runs as follows: (dose: 266.0 mg/kg/injection, schedule: Q01DX001 (ip), vehicle: carboxymethylcellulose (CMC)) 168 % of control; (dose: 400.0 mg/kg/injection, schedule: Q01DX001 (ip), vehicle: carboxymethylcellulose (CMC)) 150 % of control and 153 % of control.

Consider `O=C(O)Cc1ccc(N=Nc2c(O)c(C(=O)O)cc3ccccc23)cc1`, for which the T/C was 96 % of control under setting [7]; 93 % of control (dose: 100.0 mg/kg/injection, schedule: Q04DX003 (ip), vehicle: Klucel (hydroxypropylcellulose) (HPC)); 105 % of control under setting [8]; 100 % of control (dose: 200.0 mg/kg/injection, schedule: Q04DX003 (ip), vehicle: Klucel (hydroxypropylcellulose) (HPC)); 100 % of control under setting [9]; 103 % of control (dose: 400.0 mg/kg/injection, schedule: Q04DX003 (ip), vehicle: Klucel (hydroxypropylcellulose) (HPC)).

With `NC(N)=N/N=C(/c1ccccc1)c1ccc(Cl)cc1`, the T/C reads like this: (dose: 15.0 mg/kg/injection, schedule: Q01DX Z (ip), vehicle: saline) 90 % of control; (dose: 30.0 mg/kg/injection, schedule: Q01DX Z (ip), vehicle: saline) 92 % of control; (dose: 60.0 mg/kg/injection, schedule: Q01DX Z (ip), vehicle: saline) 97 % of control; (dose: 60.0 mg/kg/injection, schedule: Q01DX Z (oral), vehicle: saline) 95 % of control; (dose: 120.0 mg/kg/injection, schedule: Q01DX Z (ip), vehicle: saline) 110 % of control; (dose: 120.0 mg/kg/injection, schedule: Q01DX Z (oral), vehicle: saline) 92 % of control. The T/C runs as follows: (dose: 240.0 mg/kg/injection, schedule: Q01DX Z (ip), vehicle: saline) 108 % of control; (dose: 240.0 mg/kg/injection, schedule: Q01DX Z (oral), vehicle: saline) 107 % of control; (dose: 480.0 mg/kg/injection, schedule: Q01DX010 (oral), vehicle: saline) 96 % of control; (dose: 960.0 mg/kg/injection, schedule: Q01DX010 (oral), vehicle: saline) 91 % of control.

Turning to `COc1cc([N+](C)(C)C)nc(OC)n1`, the T/C by setting is: (dose: 22.0 mg/kg/injection, schedule: Q01DX Z (ip), vehicle: saline) 98 % of control; (dose: 34.0 mg/kg/injection, schedule: Q01DX Z (ip), vehicle: saline) 110 % of control; (dose: 50.0 mg/kg/injection, schedule: Q01DX Z (ip), vehicle: saline) 104 % of control.

In the case of `NC(=O)CNC(=O)CN1C(=O)c2ccccc2C1=O`, the T/C (dose: 100.0 mg/kg/injection, schedule: Q01DX001 (ip), vehicle: other) is 103 % of control; the T/C (dose: 200.0 mg/kg/injection, schedule: Q01DX001 (ip), vehicle: other) is 103 % of control; the T/C (dose: 400.0 mg/kg/injection, schedule: Q01DX001 (ip), vehicle: other) is 103 % of control.

Take `Clc1nc2nnnn2c2ccccc12`: the T/C (dose: 20.0 mg/kg/injection, schedule: Q04DX003 (ip), vehicle: saline) is 101 % of control; the T/C (dose: 40.0 mg/kg/injection, schedule: Q04DX003 (ip), vehicle: saline) was 101 % of control; the T/C (dose: 80.0 mg/kg/injection, schedule: Q04DX003 (ip), vehicle: saline) is 104 % of control.

Take `O=[N+]([O-])/C=C/c1ccc2ccccc2n1`: the T/C by setting is: (dose: 6.25 mg/kg/injection, schedule: Q01DX009 (ip), vehicle: saline with Tween-80) 97 % of control; (dose: 12.5 mg/kg/injection, schedule: Q01DX009 (ip), vehicle: saline with Tween-80) 97 % of control; under setting [6], 87 % of control; under setting [4], 93 % of control; under setting [5], 95 % of control.

On to `O=S(=O)(N=C1C(Cl)=C(Cl)C(=NS(=O)(=O)c2ccccc2)C(Cl)=C1Cl)c1ccccc1`, for which the T/C by setting is: under setting [7], 98 % of control; under setting [8], 100 % of control; under setting [9], 101 % of control.

For `O=C1OCCS1`, the T/C was 107 % of control (dose: 25.0 mg/kg/injection, schedule: Q01DX009 (ip), vehicle: saline); 104 % of control (dose: 50.0 mg/kg/injection, schedule: Q01DX009 (ip), vehicle: saline); 101 % of control and 105 % of control (dose: 100.0 mg/kg/injection, schedule: Q01DX009 (ip), vehicle: saline).
